Consider 18 molecules from patent publication US7301033B2, “PPAR-activating compound” (Kowa Co., Ltd., priority 2005, dated 2007).

Holding throughout (format): cell-based
The target in one assay is T1, human PPARα (Homo sapiens, UniProt Q07869).
T1 construct: 166th to 467th amino acids of human PPARα; expressed in transfected cells; host or cells: COS cells (African green monkey kidney)
T1 sequence (Q07869 166-467): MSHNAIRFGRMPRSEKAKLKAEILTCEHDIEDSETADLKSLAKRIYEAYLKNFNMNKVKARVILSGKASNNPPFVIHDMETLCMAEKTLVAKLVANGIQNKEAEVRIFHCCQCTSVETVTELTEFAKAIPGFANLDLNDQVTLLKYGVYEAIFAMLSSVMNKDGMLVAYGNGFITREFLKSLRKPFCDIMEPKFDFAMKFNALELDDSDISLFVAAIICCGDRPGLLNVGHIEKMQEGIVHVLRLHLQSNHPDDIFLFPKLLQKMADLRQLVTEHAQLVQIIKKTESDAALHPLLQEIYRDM
The experiment in a line: Gal4-human PPARα chimera luciferase transfection assay in COS cells. To be noted: compound added at 1 μM, luciferase activity with WY14643 10 μM given as 10.0, 16 hours. The method, then: (§1) The PPAR receptor-activating effect of the compound of the present invention represented by the formula (1) was measured by a method described below (Proc. Natl. Acad. Sci., 92, pp 7297-7301, 1995; Journal of Lipid Research, 40, pp 2099-2110, 1999; and Proc. Natl. Acad. Sci, 98, pp 5306-5311, 2001).
(§2) All the transfection assays were conducted using African green monkey kidney-derived cell line COS cells. The COS cells were cultured at 5% CO2 concentration using a DMEM medium containing 10% fetal bovine serum, glutamic acid, and an antibiotic as a culture solution.
(§3) Gal4-human PPARs chimeric constructs which were fused the DNA-binding region of yeast transcription factor Gal4 with the ligand-binding region of human PPARs were used as an expression vector. A chimera where 1st to 147th amino acids of the Gal4 transcription factor were fused with 166th to 467th amino acids of human PPARα, with 182nd to 505th amino acids of human PPARγ2, or with 137th to 441st amino acids of human PPARδ was used as the chimera for each isoform. A reporter vector used was firefly luciferase whose promoter region contains five Gal4 recognition sequences. The plasmids were transfected into the cells by a method using Lipofectamine. In addition, a β-galactosidase expression vector was used as an internal standard.
(§4) After the transfection into the cells, the medium was substituted with a DMEM medium (containing 0.2% serum) supplemented with the compound, in which the cells were then cultured for additional 16 hours. Thereafter, luciferase activity and β-galactosidase activity in the cell lysate were measured.
(§5) In the present experiment, dimethyl sulfoxide (DMSO) was used in the dissolution and dilution of the compound. When the cells were treated, the DMSO concentration in the DMEM medium (containing 0.2% serum) was adjusted to 0.1%.

For the next assay, the target named is T2, human PPARγ2 (Homo sapiens, UniProt P37231).
T2 construct: with 182nd to 505th amino acids of human PPARγ2; expressed in transfected cells; host or cells: COS cells (African green monkey kidney)
T2 sequence (P37231 182-505): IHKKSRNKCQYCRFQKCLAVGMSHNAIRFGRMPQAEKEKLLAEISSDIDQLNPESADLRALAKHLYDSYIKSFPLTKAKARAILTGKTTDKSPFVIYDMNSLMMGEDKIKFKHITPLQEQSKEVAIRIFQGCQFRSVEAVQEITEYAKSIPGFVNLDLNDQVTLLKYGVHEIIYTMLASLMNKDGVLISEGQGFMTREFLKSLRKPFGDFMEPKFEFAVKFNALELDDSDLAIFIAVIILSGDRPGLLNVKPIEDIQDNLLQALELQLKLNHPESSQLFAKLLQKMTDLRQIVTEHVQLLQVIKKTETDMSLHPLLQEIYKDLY
The experiment in a line: Gal4-human PPARγ2 chimera luciferase transfection assay in COS cells. To be noted: compound added at 1 μM, luciferase activity with rosiglitazone 1 μM given as 10.0, 16 hours. The method, then: as §1, §2, §3, §4, §5

A further assay has as its target T3, human PPARδ (Homo sapiens, UniProt Q03181).
T3 construct: with 137th to 441st amino acids of human PPARδ; expressed in transfected cells; host or cells: COS cells (African green monkey kidney)
T3 sequence (Q03181 137-441): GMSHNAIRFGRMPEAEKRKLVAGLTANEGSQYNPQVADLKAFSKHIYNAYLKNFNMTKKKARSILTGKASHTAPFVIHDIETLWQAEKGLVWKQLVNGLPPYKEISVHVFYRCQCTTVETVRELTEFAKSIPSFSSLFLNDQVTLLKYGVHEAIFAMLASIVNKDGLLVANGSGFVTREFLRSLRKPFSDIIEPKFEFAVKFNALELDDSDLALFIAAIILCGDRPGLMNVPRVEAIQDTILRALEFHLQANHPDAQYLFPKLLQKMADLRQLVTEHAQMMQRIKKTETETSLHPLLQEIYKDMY
Put plainly: Gal4-human PPARδ chimera luciferase transfection assay in COS cells. Particulars: compound added at 1 μM, luciferase activity with GW501516 1 μM given as 10.0, 16 hours. The method, then: as §1, §2, §3, §4, §5

As to `O=C(O)c1ccccc1SCCN(CCCc1ccccc1)c1nc2ccccc2o1` [Example 79, 2-[2-[N-(Benzoxazol-2-yl)-N-3-phenylpropyl]aminoethylthio]benzoic acid], the “hPPAR; Relative activity α” value at human PPARα is 13.3. In addition, the “hPPAR; Relative activity γ” value at human PPARγ2 is 1.1. Also, the “hPPAR; Relative activity δ” value at human PPARδ came out at 0.2.

As to `O=C(O)c1ccccc1SCCN(CCCOc1ccccc1)c1nc2ccccc2o1` [Example 80, 2-[2-[N-(Benzoxazol-2-yl)-N-3-phenoxypropyl]aminoethylthio]benzoic acid], the “hPPAR; Relative activity α” value on human PPARα was found to be 17.8. Further, on human PPARγ2, the “hPPAR; Relative activity γ” value stood at 1.6. In addition, the “hPPAR; Relative activity δ” value on human PPARδ is 0.2.

Turning to `CCCCCCN(CCCCSc1ccccc1C(=O)O)c1nc2ccccc2o1` [Example 93, 2-[4-[N-(Benzoxazol-2-yl)-N-n-hexyl]aminobutylthio]benzoic acid], at human PPARα, the “hPPAR; Relative activity α” value was found to be 12.3. Moreover, the “hPPAR; Relative activity γ” value on human PPARγ2 came to 4.1. The “hPPAR; Relative activity δ” value at human PPARδ was determined as 0.4.

Take `CCCCCCCCN(CCCCSc1ccccc1C(=O)O)c1nc2ccccc2o1` [Example 94, 2-[4-[N-(Benzoxazol-2-yl)-N-n-octyl]aminobutylthio]benzoic acid]: at human PPARα, the “hPPAR; Relative activity α” value is reported as 12.0. Besides, on human PPARγ2, the “hPPAR; Relative activity γ” value is reported as 3.5. On human PPARδ, the “hPPAR; Relative activity δ” value stood at 1.4.

`O=C(O)c1ccccc1SCCCCN(CCCc1ccccc1)c1nc2ccccc2o1` [Example 97, 2-[4-[N-(Benzoxazol-2-yl)-N-3-phenylpropyl]aminobutylthio]benzoic acid]: the “hPPAR; Relative activity α” value on human PPARα is recorded as 11.6. For the same molecule, the “hPPAR; Relative activity γ” value at human PPARγ2 stood at 4.6. Moreover, the “hPPAR; Relative activity δ” value at human PPARδ is listed as 0.2.

For `O=C(O)c1ccccc1SCCCCCN(Cc1ccc(Cl)cc1)c1nc2ccccc2o1` [Example 98, 2-[5-[N-(Benzoxazol-2-yl)-N-4-chlorobenzyl]aminopentylthio]benzoic acid], the “hPPAR; Relative activity α” value on human PPARα amounted to 14.7. Further, the “hPPAR; Relative activity γ” value at human PPARγ2 is given as 3.3. Moreover, the “hPPAR; Relative activity δ” value at human PPARδ amounted to 0.7.

As for `CCN(CCCCCSc1ccccc1C(=O)O)c1nc2ccccc2o1` [Example 99, 2-[5-[N-(Benzoxazol-2-yl)-N-ethyl]aminopentylthio]benzoic acid], the “hPPAR; Relative activity α” value on human PPARα is 16.8. Also, at human PPARγ2, the “hPPAR; Relative activity γ” value worked out at 2.2. In addition, the “hPPAR; Relative activity δ” value at human PPARδ worked out at 0.3.

Take `CN(CCCCCSc1ccccc1C(=O)O)c1nc2ccccc2o1` [Example 100, 2-[5-[N-(Benzoxazol-2-yl)-N-methyl]aminopentylthio]benzoic acid]: on human PPARα, the “hPPAR; Relative activity α” value worked out at 20.2. Besides, the “hPPAR; Relative activity γ” value at human PPARγ2 amounted to 1.7. Also, the “hPPAR; Relative activity δ” value on human PPARδ was 0.2.

Regarding `CCCCCCCCN(CCCCCSc1ccccc1C(=O)O)c1nc2ccccc2o1` [Example 102, 2-[5-[N-(Benzoxazol-2-yl)-N-n-octyl]aminopentylthio]benzoic acid], the “hPPAR; Relative activity α” value at human PPARα was found to be 20.3. Besides, the “hPPAR; Relative activity γ” value at human PPARγ2 came to 2.1. For the same molecule, the “hPPAR; Relative activity δ” value at human PPARδ is 0.9.

As to `CCCN(CCCCCSc1ccccc1C(=O)O)c1nc2ccccc2o1` [Example 103, 2-[5-[N-(Benzoxazol-2-yl)-N-n-propyl]aminopentylthio]benzoic acid], the “hPPAR; Relative activity α” value at human PPARα is 12.4. Moreover, at human PPARγ2, the “hPPAR; Relative activity γ” value was 2.0. On human PPARδ, the “hPPAR; Relative activity δ” value worked out at 0.2.

In the case of `O=C(O)c1ccccc1SCCCCCN(CCCc1ccccc1)c1nc2ccccc2o1` [Example 104, 2-[5-[N-(BenzoxazoI-2-yl)-N-3-phenylpropyl]aminopentylthio]benzoic acid], the “hPPAR; Relative activity α” value on human PPARα came out at 18.7. For the same molecule, on human PPARγ2, the “hPPAR; Relative activity γ” value turned out to be 2.7. On human PPARδ, the “hPPAR; Relative activity δ” value stood at 0.8.

For `O=C(O)c1ccccc1SCCCCCN(CCCOc1ccccc1)c1nc2ccccc2o1` [Example 105, 2-[5-[N-(Benzoxazol-2-yl)-N-3-phenoxypropyl]aminopentylthio]benzoic acid], the “hPPAR; Relative activity α” value at human PPARα came to 25.3. Moreover, the “hPPAR; Relative activity γ” value on human PPARγ2 is on record as 2.5. For the same molecule, the “hPPAR; Relative activity δ” value at human PPARδ was found to be 4.2.

As for `O=C(O)c1ccccc1SCCCCCCN(Cc1ccc(Cl)cc1)c1nc2ccccc2o1` [Example 106, 2-[6-[N-(Benzoxazol-2-yl)-N-4-chlorobenzyl]aminohexylthio]benzoic acid], the “hPPAR; Relative activity α” value on human PPARα turned out to be 13.1. Also, the “hPPAR; Relative activity γ” value at human PPARγ2 came out at 2.4. In addition, on human PPARδ, the “hPPAR; Relative activity δ” value is reported as 0.0.

`CCN(CCCCSc1ccccc1C(=O)O)c1nc2ccccc2s1` [Example 108, 2-[4-[N-(Benzothiazol-2-yl)-N-ethyl]aminobutylthio]benzoic acid]: at human PPARα, the “hPPAR; Relative activity α” value turned out to be 16.2. In addition, the “hPPAR; Relative activity γ” value at human PPARγ2 is reported as 1.4. Moreover, the “hPPAR; Relative activity δ” value at human PPARδ is on record as 0.2.

On to `CN(CCCCSc1ccccc1C(=O)O)c1nc2ccccc2s1` [Example 109, 2-[4-[N-(Benzothiazol-2-yl)-N-methyl]aminobutylthio]benzoic acid], for which, on human PPARα, the “hPPAR; Relative activity α” value amounted to 12.1. Moreover, at human PPARγ2, the “hPPAR; Relative activity γ” value came out at 0.8. In addition, at human PPARδ, the “hPPAR; Relative activity δ” value was 0.2.

`CCCN(CCCCSc1ccccc1C(=O)O)c1nc2ccccc2s1` [Example 110, 2-[4-[N-(Benzothiazol-2-yl)-N-n-propyl]aminobutylthio]benzoic acid]: the “hPPAR; Relative activity α” value on human PPARα is 11.0. The “hPPAR; Relative activity γ” value at human PPARγ2 stood at 2.0. Also, the “hPPAR; Relative activity δ” value at human PPARδ is given as 0.2.

In the case of `O=C(O)c1ccccc1SCCCCN(CCOc1ccccc1)c1nc2ccccc2s1` [Example 111, 2-[4-[N-(Benzothiazol-2-yl)-N-2-phenoxyethyl]aminobutylthio]benzoic acid], the “hPPAR; Relative activity α” value at human PPARα was determined as 16.0. Further, on human PPARγ2, the “hPPAR; Relative activity γ” value is listed as 4.6. Also, on human PPARδ, the “hPPAR; Relative activity δ” value turned out to be 0.3.

As for `CCCCCCCCN(CCCCCS(=O)(=O)c1ccccc1C(=O)O)c1nc2ccccc2o1` [Example 122, 2-[5-[N-(Benzoxazol-2-yl)-N-n-octyl]aminopentylsulfonyl]benzoic acid], on human PPARα, the “hPPAR; Relative activity α” value turned out to be 12.2. For the same molecule, on human PPARγ2, the “hPPAR; Relative activity γ” value worked out at 2.3. Moreover, the “hPPAR; Relative activity δ” value on human PPARδ was 0.2.
